According to patent US7094801B2, “Chalcone derivatives and their use to treat diseases” (Atherogenics, Inc., priority 2001, dated 2006):
Counter-ions that a name gives are not always drawn.

Columns and labels:
VCAM-1 = test: In Vitro VCAM-1 Assay (TNF-α stimulated HAEC or HPAEC, cell ELISA); type: cell-based, human; details: TNF-α (1 ng/ml) stimulated HAEC or HPAEC, approximately 16 hours
Method: Cell Culture and compound dosing: Cultured primary human aortic (HAEC) or pulmonary (HPAEC) endothelial cells were obtained from Clonetics, Inc., and were used below passage 9. Cells were seeded in 96 well plates such that they would reach 90–95% confluency by the following day. On the following day the cells were stimulated with TNF-α (1 ng/ml) in the presence or absence of compounds dissolved in DMSO such that the final concentration of DMSO is 0.25% or less. To establish a dose curve for each compound, four concentrations in 2- to 5-fold increments were used. Cells were exposed to TNF-α and compounds for approximately 16 hours. The next day the cells were examined under microscope to score for visual signs of toxicity or cell stress.
Following 16 hr exposure to TNF-α and compound the media was discarded and the cells were washed once with Hanks Balanced Salt Solution (HBSS)/Phosphate buffered saline (PBS) (1:1). Primary antibodies against VCAM-1 (0.25 μg/ml in HBSS/PBS+5% FBS) were added and incubated for 30–60 minutes at 37° C. Cells were washed with HBSS/PBS three times, and secondary antibody Horse Radish Peroxidase (HRP)-conjugated goat anti-mouse IgG (1:500 in HBSS/PBS+5% FBS) were added and incubated for 30 minutes at 37° C. Cells were washed with HBSS/PBS four time and TMB substrate were added and incubated at room temperature in the dark until there was adequate development of blue color. The length of time of incubation was typically 5–15 minutes. 2N sulfuric acid was added to stop the color development and the data was collected by reading the absorbance on a BioRad ELISA plate reader at OD 450 nm. The results are expressed as IC50 values (the concentration (micromolar) of compound required to inhibit 50% of the maximal response of the control sample stimulated by TNF-α only).

Compound	IC50 (VCAM-1; Homo sapiens, 16 h)	melting point	IC50 (VCAM-1)	IC50 (VCAM-1; sodium salt)
COc1cc(/C=C/C(=O)c2ccc3c(c2)OC(CO)(CO)O3)cc(-c2cccs2)c1OC [Example 1, 1-(2,2-Bis-hydroxymethyl-benzo[1,3]dioxol-5-yl)-3E-(3,4-dimethoxy-5-thiophen-2-yl-phenyl)-propenone]	< 1 µM	74 to 80 °C	–	–
O=C(/C=C/c1ccc(-c2cccs2)cc1)c1ccc2c(c1)OC(CO)(CO)O2 [Example 2, 1-(2,2-Bis-hydroxymethyl-benzo[1,3]dioxol-5-yl)-3E-(4-thiophen-2-yl-phenyl)-propenone]	< 5 µM	166 to 168 °C	–	–
O=C(O)c1ccc(C(=O)/C=C/c2ccc(-c3cncnc3)cc2)cc1 [Example 4, 4-[3E-(4-Pyrimidin-5-yl-phenyl)-acryloyl]-benzoic acid]	< 10 µM	> 260 °C	–	–
O=C(O)c1ccc(C(=O)/C=C/c2ccc(-c3nccs3)cc2)cc1 [Example 5, 4-[3E-(4-Thiazol-2-yl-phenyl)acryloyl]-benzoic acid]	< 1 µM	232 to 235 °C	–	–
COc1cc(OC)c(-c2cc3ccccc3s2)cc1/C=C/C(=O)c1ccccc1C(=O)O [Example 7, 2-[3E-(5-Benzo[b]thiophen-2-yl-2,4-dimethoxy-phenyl)-acryloyl]-benzoic acid]	–	220 to 223 °C (dec.)	< 1 µM	–
COc1cc(/C=C/C(=O)c2ccc(C(=O)O)cc2)cc(-c2cccs2)c1OC [Example 8, 4-[3E-(3,4-Dimethoxy-5-thiophen-2-yl-phenyl)-acryloyl]-benzoic acid]	< 1 µM	231 °C	–	–
COc1cc(OC)c(-c2cc3ccccc3s2)cc1/C=C/C(=O)c1ccccc1C(=O)[O-].[Na+] [Example 9, 2-[3E-(5-Benzo[b]thiophen-2-yl-2,4-dimethoxy-phenyl)-acryloyl]-benzoic acid, sodium salt]	–	214 to 217 °C (dec.)	–	< 5 µM
O=C(O)c1ccc(C(=O)/C=C/c2ccc(-c3cccs3)cc2)cc1 [Example 10, 4-[3E-(4-Thiophen-2-yl-phenyl)-acryloyl]-benzoic acid]	< 5 µM	> 260 °C	–	–
COc1cc(/C=C/C(=O)c2ccc(N)cc2)cc(-c2cccs2)c1OC [Example 11, 1-(4-Amino-phenyl)-3E-(3,4-dimethoxy-5-thiophen-2-yl-phenyl)-propenone]	< 5 µM	67 to 71 °C	–	–
Nc1ccc(C(=O)/C=C/c2ccc(-c3cccs3)cc2)cc1 [Example 12, 1-(4-Amino-phenyl)-3E-(4-thiophen-2-yl-phenyl)-propenone]	< 5 µM	185 to 187 °C	–	–
COc1cc(OC)c(-c2cc3ccccc3s2)cc1/C=C/C(=O)c1ccc(N)cc1 [Example 13, 1-(4-Amino-phenyl)-3E-(5-benzo[b]thiophen-2-yl-2,4-dimethoxy-phenyl)-propenone]	< 5 µM	98 to 104 °C	–	–
COc1cc(/C=C/C(=O)c2ccc(NS(C)(=O)=O)cc2)cc(-c2cccs2)c1OC [Example 14, N-{4-[3E-(3,4-Dimethoxy-5-thiophen-2-yl-phenyl)-acryloyl]-phenyl}-methanesulfonamide]	< 1 µM	71 to 75 °C	–	–
CCOC(=O)CNC(=O)Nc1ccc(C(=O)/C=C/c2ccc(-c3cccs3)cc2)cc1 [Example 15, (3-{4-[3E-(4-Thiophen-2-yl-phenyl)-acryloyl]-phenyl}-ureido)-acetic acid ethyl ester]	> 10 µM	209 to 212 °C	–	–
CCOC(=O)CNC(=O)N(C(=O)NCC(=O)OCC)c1ccc(C(=O)/C=C/c2cc(OC)c(OC)c(-c3cccs3)c2)cc1 [Example 16, (3-[Ethoxycarbonylmethylaminocarbonyl]-3-{4-[3E-(3,4-dimethoxy-5-thiophen-2-yl-phenyl)-acryloyl]-phenyl}-ureido)-acetic acid ethyl ester]	< 5 µM	83 to 86 °C	–	–
O=C(O)c1ccc(/C=C/C(=O)c2ccc(-c3cccs3)cc2)cc1 [Example 18, 4-[3-{4-(thien-2-yl)-phenyl}-3-oxo-E-propenyl]-benzoic acid]	< 5 µM	260 to 265 °C	–	–
COc1cc(-c2cccs2)ccc1C(=O)/C=C/c1ccc(C(=O)O)cc1 [Example 19, 4-[3-(2-Methoxy-4-thiophen-2-yl-phenyl)-3-oxo-E-propenyl]-benzoic acid]	< 1 µM	193 to 195 °C	–	–

Compound	IC50 (VCAM-1; Homo sapiens, 16 h)	melting point	IC50 (VCAM-1)	IC50 (VCAM-1; sodium salt)
O=C(O)c1ccc(C(=O)/C=C/c2ccc(N3CCCC3)c(-c3cccs3)c2)cc1 [Example 20, 4-[3E-(4-Pyrrolidin-1-yl-3-thiophen-2-yl-phenyl)-acryloyl]-benzoic acid]	> 10 µM	212 to 214 °C (dec.)	–	–
O=C(O)c1ccc(C(=O)/C=C/c2ccc(F)c(-c3cccs3)c2)cc1 [Example 21, 4-[3E-{4-Fluoro-3-(thiophen-2-yl)-phenyl}-acryloyl]-benzoic acid]	< 5 µM	242 to 244 °C	–	–
O=C(/C=C/c1ccc(-c2cccs2)cc1)c1ccc(S)cc1 [Example 22, 1-(4-Mercapto-phenyl)-3E-(4-thiophen-2-yl-phenyl)-propenone]	> 10 µM	> 110 °C (dec.)	–	–
CSc1ccc(C(=O)/C=C/c2ccc(-c3cccs3)cc2)cc1 [Example 24, 1-(4-Methylthiophenyl)-3E-(4-thiophen-2-yl-phenyl)-propenone]	> 10 µM	138 to 140 °C	–	–
NS(=O)(=O)c1ccc(C(=O)/C=C/c2ccc(-c3cccs3)cc2)cc1 [Example 26, 4-[3E-(4-Thiophen-2-yl-phenyl)-acryloyl]-benzenesulfonamide]	> 10 µM	> 245 °C	–	–
COc1cc(/C=C/C(=O)c2ccc3[nH]ccc3c2)cc(-c2cccs2)c1OC [Example 27, 3E-(3,4-Dimethoxy-5-thiophen-2-yl-phenyl)-1-(1H-indol-5-yl)-propenone]	< 5 µM	184.5 to 186 °C	–	–
O=C(O)c1ccc(C(=O)/C=C/c2ccc(-c3cccs3)cc2F)cc1 [Example 30, 4-[3E-(2-Fluoro-4-thiophen-2-yl-phenyl)-acryloyl]-benzoic acid]	< 1 µM	> 260 °C	–	–
COc1cc(OC)c(-c2cncnc2)cc1/C=C/C(=O)c1ccc(C(=O)O)cc1 [Example 31, 4-[3E-(2,4-Dimethoxy-5-pyrimidin-5-yl-phenyl)-acryloyl]-benzoic acid]	> 10 µM	> 260 °C	–	–
COc1cc(OCC2CC2)c(/C=C/C(=O)c2ccc(C(=O)O)cc2)cc1-c1cccs1 [Example 32, 4-[3E-(2-Cyclopropylmethoxy-4-methoxy-5-thiophen-2-yl-phenyl)-acryloyl]-benzoic acid]	< 5 µM	187 to 191 °C	–	–
COc1cc(OC)c(-c2cc3ccccc3s2)cc1/C=C\C(=O)c1ccc(C(=O)O)cc1 [Example 79, 4-[3Z-(5-Benzo[b]thien-2-yl-2,4-dimethoxyphenyl)-acryloyl]-benzoic acid]	< 1 µM	–	–	–
COc1cc(OC)c(-c2cc3ccccc3s2)cc1/C=C/C(=O)c1ccc(S(N)(=O)=O)cc1 [Example 80, 4-[3E-(5-Benzo[b]thiophen-2-yl-2,4-dimethoxy-phenyl)-acryloyl]-benzenesulfonamide]	< 5 µM	–	–	–
COc1cc(OC)c(-c2cc3ccccc3s2)cc1/C=C/C(=O)c1ccc(C(=O)NCCN2CCOCC2)cc1 [Example 90, 4-[3E-(5-Benzo[b]thiophen-2-yl-2,4-dimethoxy-phenyl)-acryloyl]-N-(2-morpholin-4-yl-ethyl)-benzamide]	< 1 µM	–	–	–
COc1cc(/C=C/C(=O)c2ccc(N(C)S(C)(=O)=O)cc2)cc(-c2cccs2)c1OC [Example 98, N-{4-[3E-(3,4-Dimethoxy-5-thiophen-2-yl-phenyl)-acryloyl]-phenyl}-N-methyl-methanesulfonamide]	< 5 µM	–	–	–
COc1cc(OC)c(-c2cc3ccccc3s2)cc1/C=C/C(=O)c1ccc(NC2OC(CO)C(O)C(O)C2O)cc1 [Example 99, 3E-(5-Benzo[b]thiophen-2-yl-2,4-dimethoxy-phenyl)-1-[4-(D-glucopyranosylamino)-phenyl]-propenone]	> 10 µM	–	–	–
CCOC(=O)C1(C(=O)OCC)Oc2ccc(C(=O)/C=C/c3cc(OC)c(OC)c(-c4cccs4)c3)cc2O1 [Example 103, 5-[3E-(3,4-Dimethoxy-5-thiophen-2-yl-phenyl)-acryloyl]-benzo[1,3]dioxole-2,2-dicarboxylic acid, diethyl ester]	> 10 µM	–	–	–
COc1cc(OC)c(-c2cc3ccccc3s2)cc1/C=C/C(=O)c1ccc(C(=O)O)cc1 [Example 120, 4-[3E-(5-Benzo[b]thien-2-yl-2,4-dimethoxyphenyl)-acryloyl]-benzoic acid, N-methyl-D-glucamine salt]	< 1 µM	–	–	–
